# Reference: PubChem BioAssay AID2060499 (Molecular Pharmacology Branch, DTP, NCI, 2025)
# “And” between values parts separate entries of the source, which are not always exact repeats. Equal entries are not always repeated.
# Test system: 777334-354-R2-J4-PDC tumor spheroids with HUVEC/MSC, viability
# Experiment: Anticancer human tumor 777334-354-R2-J4-PDC patient-derived pancreatic adenocarcinoma cell line growth inhibition [GQUAD]
# Conditions: for viability, T/C: stronger effect = lower value
# From the text: DNA G-quadruplex Stabilizer Agents in Combinations in Complex Spheroids
# A high-throughput screen of multi-cell type tumor spheroids was designed to identify active combinations of DNA G-quadruplex stabilizer agents and targeted small molecules. Complex spheroids include a stromal component modeled by human endothelial cells (HUVEC) and fibroblasts modeled by human mesenchymal stem cells (MSCs). The concentration ranges selected for each drug and investigational agent were based upon clinically achievable concentrations if the clinical Cmax of the agent was known.
# Compounds. The drugs and investigational agents: pidnarulex (CX-5461; NSC782164), APTO-253 (NSC789042), BRACO-19 (NSC847499), peposertib (NSC802822), ceralasertib (NSC780249), elimusertib (NSC800525), camonsertib (NSC841442), AZD-1390 (NSC803789), olaparib (NSC753686), talazoparib (NSC767125), ART-558 (NSC835418), sotorasib (NSC818433), MRTX-1133 (NSC836407), SN-38 (NSC673596), topotecan (NSC609699), etoposide (NSC141540), doxorubicin (NSC123127), gemcitabine (NSC613327), 5-fluorouracil (NSC19893), paclitaxel (NSC125973), vemurafenib (NSC761431), panobinostat (NSC761190), R-306465 (JNJ-16241199; NSC773264), adavosertib (NSC754352), TP-3654 (NSC805149), carboplatin (NSC241240), KSQ-4279 (NSC840948), and staurosporine (NSC755774) were obtained from the National Cancer Institute (NCI) Developmental Therapeutics Program Chemical Repository (34). The FDA-approved anticancer drug set is available from the NCI Developmental Therapeutics Program. […] The stock solutions were prepared in dimethyl sulfoxide (DMSO, Sigma-Aldrich, St. Louis, MO, cat. D2650) at 800-fold the tested concentration and stored at -70 degrees C prior to their use. All drugs and investigational agents were tested over a range starting from a high concentration at or near the clinical Cmax and decreasing in half-log increments. If the clinical Cmax for an agent had not been determined, the highest concentration tested was 10 microM.
# 2.3 Cell Culture. All cells were maintained in an incubator at 37 degrees C and 5% CO2 with 95% humidity. The PDC lines were cultured according to standard operating procedures established by the NCI PDMR. All PDCs were thawed and cultured in Matrigel-coated flasks prepared with a working solution of 1X Ham's F-12 nutrient mix, without supplementation (Invitrogen, cat. 11765054), 100 U/mL penicillin-streptomycin (Invitrogen, cat. 15140122), and 2.5% Matrigel (Corning Inc., cat. 354248) for the first three passages. The 857933-349-R-J2-PDC line was cultured in 6C/Colon 1B media, which includes advanced DMEM/F-12 (Thermo Fisher Scientific, cat. 12634028), 10 mM HEPES (Thermo Fisher Scientific, cat. 15630080), 1X GlutaMAX supplement (Thermo Fisher Scientific, cat. 35050061), 0.1 mg/mL primocin (InvivoGen, cat. ant-pm-2), 10% defined fetal bovine serum, heat inactivated (HyClone Laboratories Inc., cat. SH30070.03HI), 50% L-WRN conditioned media (ATCC, cat. CRL-3276), 1.25 mM N-Acetyl-L-cysteine (Sigma-Aldrich, cat. A9165), 10 mM nicotinamide (Sigma-Aldrich, cat. N0636), 1X B-27 supplement (Thermo Fisher Scientific, cat. 17504044), 1X N-2 supplement (Thermo Fisher Scientific, cat. 17502048), 10 microM Y-27632 dihydrochloride (Tocris Bioscience, cat. 1254), and 50 ng/mL human EGF recombinant protein (Thermo Fisher Scientific, cat. PHG0311). The 485176-168-R4-J1-PDC line was cultured in Panc media, which includes all 6C/Colon 1B media components plus 100 ng/mL human FGF-10 (Thermo Fisher Scientific, cat. 100-26), 500 nM SB-431542 (Selleckchem, cat. S1067), and gastrin (Tocris, cat. 3006).
# […]
# 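Also: spheroids exposed to compounds for 7 days before readout.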
structure (smiles),measurement,setting,value
CCc1c2c(nc3ccc(O)cc13)-c1cc3c(c(=O)n1C2)COC(=O)[C@]3(O)CC,"viability, T/C",compound 0.000999 µM,87.3% and 77.7% and 87.8%
same,"viability, T/C",compound 0.00316 µM,62.7% and 59.7% and 52.4%
same,"viability, T/C",compound 0.00999 µM,38% and 36% and 36.3%
same,"viability, T/C",compound 0.0316 µM,24% and 23.4% and 23.9%
same,"viability, T/C",compound 0.0999 µM,15.9% and 15.4% and 13.3%
same,"viability, T/C",compound 0.316 µM,8.77% and 9.22% and 10.1%
same,IC50,curve of compound,5.78 nM and 5.06 nM and 4.18 nM
COc1cc(C2c3cc4c(cc3C(OC3OC5COC(C)OC5C(O)C3O)C3COC(=O)C23)OCO4)cc(OC)c1O (stereo not given),"viability, T/C",compound 0.0316 µM,94.6% and 85% and 95.3%
same,"viability, T/C",compound 0.1 µM,88.4% and 97.9% and 91.6%
same,"viability, T/C",compound 0.316 µM,88.8% and 89.8% and 94.8%
same,"viability, T/C",compound 1 µM,71.9% and 74.2% and 72.8%
same,"viability, T/C",compound 3.16 µM,69.3% and 64% and 61.6%
same,"viability, T/C",compound 10 µM,41.3% and 38.2% and 35.7%
same,IC50,curve of compound,6820 nM and 5690 nM and 5030 nM
CC1COCCN1c1cc(C2(S(C)(=N)=O)CC2)nc(-c2ccnc3[nH]ccc23)n1 (stereo not given),"viability, T/C",compound 0.0316 µM,112% and 90.9% and 98.4%
same,"viability, T/C",compound 0.1 µM,106% (2×) and 86.8%
same,"viability, T/C",compound 0.316 µM,105% and 99.7% and 115%
same,"viability, T/C",compound 1 µM,105% and 84% and 101%
same,"viability, T/C",compound 3.16 µM,89.7% and 86.5% and 112%
same,"viability, T/C",compound 10 µM,63% and 58.7% and 63.3%
same,IC50,curve of compound,> 10000 nM
CC[C@@]1(O)C(=O)OCc2c1cc1n(c2=O)Cc2cc3c(CN(C)C)c(O)ccc3nc2-1,"viability, T/C",compound 0.000999 µM,102% and 101% and 87.9%
same,"viability, T/C",compound 0.00316 µM,98.6% and 112% and 91.4%
same,"viability, T/C",compound 0.00999 µM,95.8% and 97.9% and 93.1%
same,"viability, T/C",compound 0.0316 µM,87.9% and 83.3% and 90.2%
same,"viability, T/C",compound 0.0999 µM,68.3% and 59.5% and 61.7%
same,"viability, T/C",compound 0.316 µM,39.7% and 35.4% and 42.7%
same,IC50,curve of compound,209 nM and 154 nM and 203 nM
CC[C@@]1(O)C(=O)OCc2c1cc1n(c2=O)Cc2cc3c(CN(C)C)c(O)ccc3nc2-1 + CN(C)c1ccc(Nc2c3ccc(NC(=O)CCN4CCCC4)cc3nc3cc(NC(=O)CCN4CCCC4)ccc23)cc1,IC50,"curve of first compound, second compound 0.0316 µM",130 nM
same,IC50,"curve of first compound, second compound 0.1 µM",157 nM
same,IC50,"curve of first compound, second compound 0.316 µM",153 nM
same,IC50,"curve of first compound, second compound 1 µM",163 nM
same,IC50,"curve of first compound, second compound 3.16 µM",106 nM
same,IC50,"curve of first compound, second compound 10 µM",140 nM
same,"viability, T/C","second compound 0.0316 µM, first compound 0.000999 µM",105%
same,"viability, T/C","second compound 0.0316 µM, first compound 0.00316 µM",110%
same,"viability, T/C","second compound 0.0316 µM, first compound 0.00999 µM",109%
same,"viability, T/C","second compound 0.0316 µM, first compound 0.0316 µM",84.5%
same,"viability, T/C","second compound 0.0316 µM, first compound 0.0999 µM",56%
same,"viability, T/C","second compound 0.0316 µM, first compound 0.316 µM",34.7%
same,"viability, T/C","second compound 0.1 µM, first compound 0.000999 µM",106%
same,"viability, T/C","second compound 0.1 µM, first compound 0.00316 µM",89.2%
same,"viability, T/C","second compound 0.1 µM, first compound 0.00999 µM",103%
same,"viability, T/C","second compound 0.1 µM, first compound 0.0316 µM",88.8%
same,"viability, T/C","second compound 0.1 µM, first compound 0.0999 µM",57.7%
same,"viability, T/C","second compound 0.1 µM, first compound 0.316 µM",38.5%
same,"viability, T/C","second compound 0.316 µM, first compound 0.000999 µM",77.1%
same,"viability, T/C","second compound 0.316 µM, first compound 0.00316 µM",90.2%
same,"viability, T/C","second compound 0.316 µM, first compound 0.00999 µM",95.1%
same,"viability, T/C","second compound 0.316 µM, first compound 0.0316 µM",79.1%
same,"viability, T/C","second compound 0.316 µM, first compound 0.0999 µM",60.4%
same,"viability, T/C","second compound 0.316 µM, first compound 0.316 µM",33.2%
same,"viability, T/C","second compound 1 µM, first compound 0.000999 µM",98.8%
same,"viability, T/C","second compound 1 µM, first compound 0.00316 µM",95.9%
same,"viability, T/C","second compound 1 µM, first compound 0.00999 µM",100%
same,"viability, T/C","second compound 1 µM, first compound 0.0316 µM",88.1%
same,"viability, T/C","second compound 1 µM, first compound 0.0999 µM",57.8%
same,"viability, T/C","second compound 1 µM, first compound 0.316 µM",39.6%
same,"viability, T/C","second compound 3.16 µM, first compound 0.000999 µM",83.7%
same,"viability, T/C","second compound 3.16 µM, first compound 0.00316 µM",94.2%
same,"viability, T/C","second compound 3.16 µM, first compound 0.00999 µM",98.8%
same,"viability, T/C","second compound 3.16 µM, first compound 0.0316 µM",83.6%
same,"viability, T/C","second compound 3.16 µM, first compound 0.0999 µM",51.4%
same,"viability, T/C","second compound 3.16 µM, first compound 0.316 µM",31.9%
same,"viability, T/C","second compound 10 µM, first compound 0.000999 µM",79.3%
same,"viability, T/C","second compound 10 µM, first compound 0.00316 µM",89.9%
same,"viability, T/C","second compound 10 µM, first compound 0.00999 µM",67.4%
same,"viability, T/C","second compound 10 µM, first compound 0.0316 µM",73.4%
same,"viability, T/C","second compound 10 µM, first compound 0.0999 µM",55.3%
same,"viability, T/C","second compound 10 µM, first compound 0.316 µM",35.1%
